Data set [1] concerns Vero-E6 cells.
Data set [2] has as its system MPXV strain MOH-NRC-0002/2022, clade II lineage A.2.1.
Data set [3] in a line: in vitro. To be noted: African green monkey.
The subject of data set [4] is MPXV strain MOH-NRC-0002/2022, clade II lineage A.2.1. In words: in vitro. Particulars: African green monkey, SI (selectivity safety index = CC50/IC50).
Data set [5] shares this test system. Put plainly: microbe, parasite or virus in culture. Particulars: Monkeypox virus.
Data set [6] has as its system MPXV lineage responsible for the 2022 outbreak. To be noted: in vivo; cited from earlier work.
Data set [7] has as its system clade I or clade II MPXV infection. To be noted: human, in vivo; cited from earlier work.
For data set [8], the system named is Zr-599 and Liberia strains of MPXV. To be noted: cited from earlier work.

Where two headings read alike, the source gives them in different places.

These results are taken from PMC12736150 (Pharmaceuticals, 2025).

Tenofovir disoproxil: in data set [1], the CC50 came out at 302 µM. In addition, in data set [2], the 50% inhibitory concentration (IC50) – broadly, the concentration that inhibits the measured activity by half – came to 67.2 µM and the “SI (selectivity safety index = CC50/IC50)” value was 4.50.

Compound `Nc1nc2c(ncn2COCCO)c(=O)[nH]1` [Acyclovir] showed a CC50 in data set [3] of 332 µM.

In data set [3], `C=C1[C@H](CO)[C@@H](O)C[C@@H]1n1cnc2c(=O)[nH]c(N)nc21` [Entecavir] came in with a CC50 of 336 µM. Further, the selectivity ratio in data set [4] turned out to be 12. This compound returned a concentration for half-maximal inhibition (IC50) in data set [5] (Vero C1008, 72 h) of 28.1 µM. For the same compound, the “antiviral activity against MPXV (in words)” value (“antiviral activity” below) in data set [2] is on record as “moderate anti-Mpox activity”.

`CC(=O)N[C@H]1[C@H]([C@H](O)[C@H](O)CO)OC(C(=O)O)=C[C@@H]1N=C(N)N` [Zanamivir] returned a CC50 in data set [3] of 359 µM. Further, the selectivity ratio in data set [4] stood at 1.9. In data set [5] (Vero C1008, 72 h), this compound showed a concentration for half-maximal inhibition (IC50) of 189 µM.

In turn, `CC(C)[C@H](N)C(=O)OCCOCn1cnc2c(=O)[nH]c(N)nc21` [Valaciclovir] came in with a CC50 in data set [3] of 404 µM. Besides, the selectivity ratio in data set [4] was 5.42. In data set [5] (Vero C1008, 72 h), this compound had an IC50 of 74.4 µM.

In data set [3], `Nc1nc(NC2CC2)c2ncn([C@H]3C=C[C@@H](CO)C3)c2n1` [Abacavir] registered a CC50 of 328 µM. In addition, in data set [4], the selectivity ratio came out at 5.46. In data set [5] (Vero C1008, 72 h), this compound had a concentration for half-maximal inhibition (IC50) of 60.1 µM.

In turn, `Cc1cn([C@H]2C[C@H](N=[N+]=[N-])[C@@H](CO)O2)c(=O)[nH]c1=O` [Zidovudine] returned a CC50 in data set [3] of 282 µM. In data set [4], the selectivity ratio is 2.29. For the same compound, in data set [5] (Vero C1008, 72 h), the 50% inhibitory concentration (IC50) came to 123 µM. Moreover, in data set [2], the “antiviral activity” value is listed as “limited activity”.

Compound `Nc1nc2c(ncn2CCC(CO)CO)c(=O)[nH]1` [Penciclovir] came in with a CC50 in data set [3] of 280 µM. For the same compound, in data set [4], the selectivity ratio amounted to 3.95. Further, the IC50 came out at 70.9 µM in data set [5] (Vero C1008) and 70.8 µM in data set [5] (Vero C1008, 72 h).

Turning to `CCC(CC)COC(=O)[C@H](C)N[P@](=O)(OC[C@H]1O[C@@](C#N)(c2ccc3c(N)ncnn23)[C@H](O)[C@@H]1O)Oc1ccccc1` [Remdesivir], the CC50 in data set [3] was 503 µM. This compound also gave an IC50 in data set [5] (Vero C1008, 72 h) of 10 µM.

As to `CC(C)[C@H](N)C(=O)OCC(CO)OCn1cnc2c(=O)nc(N)[nH]c21` (stereo partly shown) [Valganciclovir], the CC50 in data set [3] is 494 µM. Also, the selectivity ratio in data set [4] was found to be 5.36. This compound yielded an IC50 in data set [5] (Vero C1008, 72 h) of 92 µM.

`NC12CC3CC(CC(C3)C1)C2` [Amantadine]: the CC50 in data set [3] turned out to be 570 µM. The selectivity ratio in data set [4] came out at 15.2. The same compound came in with a half-maximal inhibitory concentration (IC50) in data set [5] (Vero C1008, 72 h) of 37.5 µM. In data set [2] (African green monkey), the “SI (selectivity safety index = CC50/IC50)” value is 15.22.

For `Cc1ccnc2c1NC(=O)c1cccnc1N2C1CC1` [Nevirapine], the CC50 in data set [3] came to 277 µM. In addition, the selectivity ratio in data set [4] is 2.61. Further, in data set [5] (Vero C1008, 72 h), the half-maximal inhibitory concentration (IC50) was determined as 106 µM.

`NC(=O)c1ncn([C@@H]2O[C@H](CO)[C@@H](O)[C@H]2O)n1` [Ribavirin] yielded a CC50 in data set [3] of 262 µM. Further, the selectivity ratio in data set [4] is 1.83. The compound also gave a concentration for half-maximal inhibition (IC50) in data set [5] (Vero C1008, 72 h) of 144 µM.

Take `O=C(NN1C(=O)[C@@H]2[C@@H]3C=C[C@@H]([C@H]4C[C@@H]34)[C@@H]2C1=O)c1ccc(C(F)(F)F)cc1` [Tecovirimat]: the survival rates result in data set [6] is given as “enhanced the survival rates”. In data set [7], the lesion resolution time entry is on record as “did not reduce lesion resolution time” and the “safety in randomized clinical trials” value is listed as “safe”.

Turning to `CC(C)C(=O)OC[C@H]1O[C@@H](n2ccc(NO)nc2=O)[C@H](O)[C@@H]1O` [Molnupiravir], in data set [3], the CC50 is 111 µM. The IC50 in data set [8] is roughly 5.2 µM; in data set [5] (Vero C1008, 72 h) it was 5.7 µM; in data set [2] it was 5.73 µM. Also, the “antiviral activity” value in data set [2] is “moderate anti-Mpox activity”.

Consider `CC(C)OC(=O)[C@H](C)N[P@](=O)(OC[C@H]1O[C@@H](n2ccc(=O)[nH]c2=O)[C@](C)(F)[C@@H]1O)Oc1ccccc1` [Sofosbuvir], for which the CC50 in data set [3] was 286 µM. The selectivity ratio in data set [4] stood at 0.61. The compound further showed a concentration for half-maximal inhibition (IC50) in data set [5] (Vero C1008, 72 h) of 470 µM.

`C[C@@H]1CCO[C@H]2Cn3cc(C(=O)NCc4ccc(F)cc4F)c(=O)c(O)c3C(=O)N12` [Dolutegravir] registered a CC50 in data set [3] of 160 µM. Besides, the selectivity ratio in data set [4] worked out at 7.82. The compound further yielded an IC50 in data set [5] (Vero C1008, 72 h) of 20.5 µM. Further, the “antiviral activity” value in data set [2] was “moderate antiviral activity”.

In turn, `COC(=O)N[C@H](C(=O)N1CCC[C@H]1c1nc(-c2ccc(-c3ccc(-c4c[nH]c([C@@H]5CCCN5C(=O)[C@@H](NC(=O)OC)C(C)C)n4)cc3)cc2)c[nH]1)C(C)C` [Daclatasvir] displayed a CC50 in data set [3] of 386 µM. Besides, the selectivity ratio in data set [4] was 1.99. Also, the IC50 in data set [5] (Vero C1008, 72 h) worked out at 194 µM.

The compound `CCN(CCO)CCCC(C)Nc1ccnc2cc(Cl)ccc12` (stereo not shown) [Hydroxychloroquine] displayed a CC50 in data set [3] of 296 µM. For the same compound, in data set [4], the selectivity ratio stood at 7.41. Besides, in data set [5] (Vero C1008, 72 h), the 50% inhibitory concentration (IC50) worked out at 39.9 µM. In addition, the “antiviral activity” value in data set [2] is “moderate antiviral activity”.

On to `COC[C@H]1C[C@@H](c2ncc(-c3ccc4c(c3)COc3cc5c(ccc6nc([C@@H]7CC[C@H](C)N7C(=O)[C@@H](NC(=O)OC)C(C)C)[nH]c65)cc3-4)[nH]2)N(C(=O)[C@H](NC(=O)OC)c2ccccc2)C1` [Velpatasvir], for which the CC50 in data set [3] is 316 µM. Further, the selectivity ratio in data set [4] was 0.95. Moreover, the IC50 in data set [5] (Vero C1008, 72 h) amounted to 332 µM.

Take `Nc1ccn([C@@H]2CS[C@H](CO)O2)c(=O)n1` [Lamivudine]: in data set [3], the CC50 was 410 µM.

In the case of `CCOC(=O)C1=C[C@@H](OC(CC)CC)[C@H](NC(C)=O)[C@@H](N)C1` [Oseltamivir], the CC50 in data set [3] came to 369 µM; in data set [1] (African green monkey), 269 µM. Moreover, in data set [4], the selectivity ratio turned out to be 4.6. In addition, the concentration for half-maximal inhibition (IC50) in data set [5] (Vero C1008, 72 h) came out at 58.5 µM.

In turn, `NC(=O)c1nc(F)c[nH]c1=O` [Favipiravir] yielded a CC50 in data set [3] of 283 µM. For the same compound, the selectivity ratio in data set [4] was 3.41. Moreover, the IC50 in data set [5] (Vero C1008, 72 h) was 82.8 µM.

The compound `CCN(CC)CCCC(C)Nc1ccnc2cc(Cl)ccc12` (stereo not shown) [Chloroquine] displayed a CC50 in data set [3] of 253 µM. In addition, the selectivity ratio in data set [4] is 2.47. The compound also registered an IC50 in data set [5] (Vero C1008, 72 h) of 102 µM.
